Measured values taken from EP4799617A1, “PHARMACEUTICAL COMPOSITION HAVING JAK INHIBITORY EFFECT” (Orxes Chinese Medicine (Shanghai) Co., Ltd., priority 2024, dated 2025).

What was measured:
[1] = system: mice with cyclophosphamide-induced alopecia areata; test: Hair length (vernier caliper) and hair weight (balance) after the final administration; format: in vivo; conditions: gavage once daily, after final administration (Day 28); for Hair length: CP-induced alopecia areata mice; for Hair weight: regrown hair of depilated area
Description: (§1) 60 male C57/BL-6 mice aged 6-8 weeks were evenly divided into 6 groups with 10 mice per group. These groups were: a control group, a model group, a CE (15 mg/kg) group, a CE (30 mg/kg) group, a BT (1 mg/kg) group, and a CE+BT (15+0.5 mg/kg) group. After 1 week of normal feeding, the dorsal hair of the mice was shaved using a depilatory device to prepare the skin (2×3 cm^2). Then, depilatory cream was applied to the prepared skin area to ensure complete removal of the hair on the back of the mice. From the day after depilation, each group of mice was administered once daily by gavage.
(§2) On Day 9 of administration in the aforementioned experiment, cyclophosphamide (abbreviated as CP) was intraperitoneally injected to each mouse in the model group (not administered with CE and/or BT), the CE (15 mg/kg) group, the CE (30 mg/kg) group, the BT (1 mg/kg) group, and the CE+BT (15+0.5 mg/kg) group to establish the AA model. The method for establishing the model is described in the literature: "Effect of CeO2 Nanoenzyme on Hair Growth of Mice with Cyclophosphamide-Induced Alopecia Areata", PENG Xinxin et al., J Shanxi Med Univ, Feb. 2024, Vol. 55, No. 2, p.192.
After the final administration (on Day 28), the length of dorsal hair of the mice in each group was measured using a vernier caliper. Subsequently, the regrown hair in the original depilated area was removed using a depilatory device, and was weighed using a balance. Table 2 Effects of CE, BT and CE+BT on hair length and hair weight in the mice with cyclophosphamide-induced alopecia areata

C57/BL-6 mice = test: Hair growth of depilated mice after 9 days of gavage administration (dorsal images, hair score by IMAGE J); format: in vivo; conditions: first 9 days after depilation
Description: as §1
The substances to be administered were prepared as follows: The aqueous solution of 0.5% sodium carboxymethylcellulose: First, 0.5 g of sodium carboxymethylcellulose powder was added to 100 mL of distilled water, and then the mixture was placed in a water bath and heated at 60-70 °C. […]
Images of the dorsal region of the mice were captured at key time points of hair growth (i.e. Day 0 and Day 9), respectively. In addition, the gray values in the depilated areas on the dorsal region of the mice in Figure a were analyzed using IMAGE J software (National Institutes of Health, USA) to obtain hair scores. In Figure b, the hair scores represent the quantified gray values of the hair on the back skin of the mice.

[2] = system: JAK3/STAT3 signaling pathway; test: Western blotting of p-JAK3/JAK3 and p-STAT3/STAT3 in mouse skin tissue; format: in vivo, mice; conditions: Western blot gray values, versus model group
Description: The expression levels of p-JAK3/JAK3 and p-STAT3/STAT3 proteins were detected by Western blotting using the half of the skin samples that were stored in the freezer at -80°C as described in Example 2. • p-JAK3: purchased from Absin, Cat No.: abs139988; • JAK3: purchased from Absin, Cat No.: abs115170; • p-STAT3: purchased from Absin, Cat No.: abs130919; • STAT3: purchased from Absin, Cat No.: abs155916.
The mouse skin samples stored at -80°C were taken out. 50 mg of skin tissue was cut with surgical scissors from each sample and respectively placed into 2 mL EP tubes. 500 µL of RIPA lysis buffer (available from Servicebio, Cat No.: G2002-100ML) (containing 5µL of protease inhibitor PMSF, available from Servicebio, Cat No.: G2008-1ML) was added to each EP tube. The skin was then disrupted by a cell grinding rod that is inserted into the 2 mL EP tube. […]
The total protein concentration in the supernatant was determined using a BCA kit (G2026-200T, Servicebio) following the protocol in the instruction manual. […]
The previously prepared resolving gel and stacking gel were clamped onto the main body of the gel-casting apparatus, with the stacking gel on the top and the resolving gel on the bottom. […] The gel casting apparatus was then disassembled and placed in the transfer buffer (Cat No.: G2028-1L, available from Servicebio) to be ready for subsequent membrane transfer procedure. […]

[3] = system: mice with cyclophosphamide-induced alopecia areata; test: Preventive effect on hair loss in cyclophosphamide-induced alopecia areata (dorsal images); format: in vivo; conditions: gavage, Day 7 after CP injection, versus model group
Description: as §2
Whether the model has been successfully established was determined by observing the hair loss in each group of mice, wherein the onset of hair loss indicated the successful model establishment.
Images of the dorsal region of the mice were captured on Day 9 of administration (Day 0 after CP injection), Day 14 (Day 5after CP injection), and Day 16 (Day 7 after CP injection). In Figure 2, gavage administration was used for administering CE and/or BT to the mice in the CE (15 mg/kg) group, the CE (30 mg/kg) group, the BT (1 mg/kg) group, and the CE+BT (15+0.5 mg/kg) group; and intraperitoneal injection was used for administering CP to the mice in the model group, the CE (15 mg/kg) group, the CE (30 mg/kg) group, the BT (1 mg/kg) group, and the CE+BT (15+0.5 mg/kg) group. […]

| SMILES | Hair length ([1]; BT 1 mg/kg) [mm] | Hair weight ([1]; BT 1 mg/kg) [mg] | Hair length ([1]; CE 15 mg/kg) [mm] | Hair weight ([1]; CE 15 mg/kg) [mg] | Hair length ([1]; CE 30 mg/kg) [mm] | Hair weight ([1]; CE 30 mg/kg) [mg] | hair growth (C57/BL-6 mice; CE 15 mg/kg) | hair growth (C57/BL-6 mice; CE 30 mg/kg) | relative viabilities of p-JAK3/JAK3 and p-STAT3/STAT3 ([2]; CE 15 mg/kg) | relative viabilities of p-JAK3/JAK3 and p-STAT3/STAT3 ([2]; CE 30 mg/kg) | hair loss ([3]; CE 15 mg/kg) | hair loss ([3]; CE 30 mg/kg) |
| --- | --- | --- | --- | --- | --- | --- | --- | --- | --- | --- | --- | --- |
| CCS(=O)(=O)N1CC(CC#N)(n2cc(-c3ncnc4[nH]ccc34)cn2)C1 [BT, baricitinib] | 6.51±0.61 | 38.62 ± 6.02 |  |  |  |  |  |  |  |  |  |  |
| C[C@@H]1CC[C@H]2C(C)(C)[C@H]3C[C@@]12CC[C@@]3(C)O [CE, cedrol] |  |  | 5.98±1.22 | 35.38 ± 6.88 | 6.78±1.32 | 43.51 ± 6.45 | significant hair growth | significant hair growth | significantly different from that in the model group | significantly different from that in the model group | significantly better than that of the model group | significantly better than that of the model group |
